Results as given in patent US20240384268A1, “Oligonucleotides” (Hudson Institute of Medical Research, priority 2021, published 2024).

Target: T1, human TLR9 (Homo sapiens, UniProt Q9NR96)
T1 construct: HA; host or cells: 293XL-hTLR9-HA (HEK293)
T1 sequence (Q9NR96 26-1032): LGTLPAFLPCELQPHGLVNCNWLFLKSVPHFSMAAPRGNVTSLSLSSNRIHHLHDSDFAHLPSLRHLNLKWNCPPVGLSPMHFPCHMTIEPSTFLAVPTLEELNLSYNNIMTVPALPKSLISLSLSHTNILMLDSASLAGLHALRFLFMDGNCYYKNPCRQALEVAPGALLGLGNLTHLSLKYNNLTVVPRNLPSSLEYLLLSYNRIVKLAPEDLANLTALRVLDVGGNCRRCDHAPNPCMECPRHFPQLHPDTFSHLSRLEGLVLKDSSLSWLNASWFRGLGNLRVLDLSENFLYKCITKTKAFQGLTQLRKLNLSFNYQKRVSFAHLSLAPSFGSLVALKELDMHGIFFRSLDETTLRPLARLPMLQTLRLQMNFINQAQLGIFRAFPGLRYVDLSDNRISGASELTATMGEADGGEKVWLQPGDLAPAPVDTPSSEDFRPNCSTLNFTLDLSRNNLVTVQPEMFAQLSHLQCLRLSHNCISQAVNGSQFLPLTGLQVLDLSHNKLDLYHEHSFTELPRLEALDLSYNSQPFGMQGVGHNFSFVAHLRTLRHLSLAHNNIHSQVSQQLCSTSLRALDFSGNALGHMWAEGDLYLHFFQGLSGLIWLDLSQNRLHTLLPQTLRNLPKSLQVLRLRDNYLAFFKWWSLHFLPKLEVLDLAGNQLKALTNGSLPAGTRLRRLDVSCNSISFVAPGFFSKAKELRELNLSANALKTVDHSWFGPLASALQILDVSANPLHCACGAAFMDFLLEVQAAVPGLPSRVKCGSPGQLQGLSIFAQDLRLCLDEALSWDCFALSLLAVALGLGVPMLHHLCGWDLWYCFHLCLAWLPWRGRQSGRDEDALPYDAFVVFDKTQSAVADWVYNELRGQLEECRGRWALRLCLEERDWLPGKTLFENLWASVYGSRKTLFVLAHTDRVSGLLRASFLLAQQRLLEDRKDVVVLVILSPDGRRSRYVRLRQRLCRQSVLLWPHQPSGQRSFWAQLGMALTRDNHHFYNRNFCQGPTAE
Assay: HEK-TLR9 NF-κB-luciferase reporter, ODN2006 stimulation
Type: cell-based
Settings: for TLR9 100 nM (averaged NF-κB-Luciferase level relative to ODN2006 condition): ASO 100 nM; for TLR9 100 nM (averaged NF-κB-Luciferase level relative to ODN2006 condition) / TLR9 500 nM (averaged NF-κB-Luciferase level relative to ODN2006 condition): relative to ODN2006 only, given as fraction; for TLR9 500 nM (averaged NF-κB-Luciferase level relative to ODN2006 condition): ASO 500 nM

Sequence	TLR9 100 nM (averaged NF-κB-Luciferase level relative to ODN2006 condition)	TLR9 500 nM (averaged NF-κB-Luciferase level relative to ODN2006 condition)	inhibition of TLR9, 2′MOE ASOs (in words) (HEK-TLR9, 100 nM MOE ASO 45 min, 200 nM ODN2006 (FIG. 30))	TLR9 100 nM (MOE-modified ASO at 100 nM, averaged NF-κB-Luciferase relative to ODN2006 condition)	TLR9 500 nM (MOE-modified ASO at 500 nM, averaged NF-κB-Luciferase relative to ODN2006 condition)
AAAGGACTGAGGAAAG (antisense; LNA-modified, pattern not given here) [CAMSAP1-6273 LNA KL]	0.780	0.185	–	–	–
AACACTTCGTGGGGTC (antisense; LNA-modified, pattern not given here) [HPRT LNA-666 V1]	1.104	0.475	–	–	–
AACCCCTTTCACCATC (antisense; LNA-modified, pattern not given here) [MB21D1-689 LNA KL]	0.586	0.076	–	–	–
AATCCAACAAAGTCTG (antisense; LNA-modified, pattern not given here) [HPRT LNA-692 KL]	1.050	0.529	–	–	–
ACACTTCGTGGGGTCCTTTT (antisense; 2'-MOE modified, pattern not given here) [HPRT-663 MOE]	–	–	stronger inhibitor than 664/665 and 666 ASOs	0.114	0.226
ACCACGTCTGCTCTAA (antisense; LNA-modified, pattern not given here) [CAMSAP1-1635 LNA KL]	0.842	0.162	–	–	–
ACGTTCAGTCCTGTCC (antisense; LNA-modified, pattern not given here) [HPRT LNA-294 V1]	0.427	0.198	–	–	–
ACTTCGTGGGGTCCTT (antisense; LNA-modified, pattern not given here) [HPRT LNA-663 V1]	0.377	0.377	–	–	–
AGATTTCAGAGCAGCT (antisense; LNA-modified, pattern not given here) [EGFR-4885 LNA KL]	0.848	0.438	–	–	–
AGCTTCGAGGCCCCAG (antisense; LNA-modified, pattern not given here) [MB21D1-616 LNA V1]	0.114	0.085	–	–	–
AGGACTCCAGATGTTT (antisense; LNA-modified, pattern not given here) [HPRT LNA pos cont]	0.816	0.511	–	–	–
AGGCCCTTCGCACTTC (antisense; LNA-modified, pattern not given here) [EGFR-1225 LNA V1]	0.576	0.211	–	–	–
AGGTCTTGGCTTCGTG (antisense; LNA-modified, pattern not given here) [MB21D1-524 LNA V1]	0.975	0.383	–	–	–
AGTGTTGAGATACTCG (antisense; LNA-modified, pattern not given here) [EGFR-3652 LNA KL]	0.982	0.540	–	–	–
ATCTGGCAGCCCATCA (antisense; LNA-modified, pattern not given here) [CTNN2B-2516 LNA V1]	1.248	0.603	–	–	–
ATGGCCTCCCATCTCC (antisense; LNA-modified, pattern not given here) [HPRT LNA-330 V1]	0.511	0.244	–	–	–
ATGTGATGGCCTCCCA (antisense; LNA-modified, pattern not given here) [HPRT LNA-335 V1]	0.776	0.451	–	–	–
CACTTCGTGGGGTCCT (antisense; LNA-modified, pattern not given here) [HPRT LNA-664 V1]	0.215	0.074	–	–	–
CATCCACCACGTCGTC (antisense; LNA-modified, pattern not given here) [EGFR-3266 LNA V1]	0.722	0.620	–	–	–
CCAACACTTCGTGGGG (antisense; LNA-modified, pattern not given here) [HPRT LNA-668 V1]	1.065	0.610	–	–	–
CCACATCCTGTGGCTC (antisense; LNA-modified, pattern not given here) [CAMSAP1-2906 LNA V1]	0.338	0.337	–	–	–
CCACTTGGCAGACCAT (antisense; LNA-modified, pattern not given here) [CTNN2B-1575 LNA V1]	1.112	0.111	–	–	–
CCAGCAGGTCAGCAAA (antisense; LNA-modified, pattern not given here) [HPRT LNA-388 KL]	0.736	0.149	–	–	–
CCCACTTGGCAGACCA (antisense; LNA-modified, pattern not given here) [CTNN2B-1576 LNA V1]	0.381	0.656	–	–	–
CCTCCCATCTCCTTCA (antisense; LNA-modified, pattern not given here) [HPRT LNA-326 V1]	1.010	0.727	–	–	–
CCTTGCACGTGGCTTC (antisense; LNA-modified, pattern not given here) [EGFR-1013 LNA V1]	0.814	0.519	–	–	–
CGCTTTTCTGTCTGGT (antisense; LNA-modified, pattern not given here) [CTNN2B-311 LNA KL]	0.827	0.178	–	–	–
CGGCCTCGGAAGCTCT (antisense; LNA-modified, pattern not given here) [MB21D1-168 LNA V1]	0.218	0.116	–	–	–
CGTATTATAGCCGATT (antisense; LNA-modified, pattern not given here) [NC1 LNA PS 3-10-3]	0.933	0.558	–	–	–
CTGCAGCTTCCTTGTC (antisense; LNA-modified, pattern not given here) [CTNN2B-2136 LNA V1]	0.358	0.263	–	–	–
